Results as given in PubChem BioAssay AID2305 (GlaxoSmithKline (GSK), 2010).

test system: P. falciparum 3D7 growth, pLDH absorbance; assay: P. falciparum 3D7 growth inhibition, dose response, strain 3D7 (AID 2305)

`O=S(=O)(NC1CCN(c2ccnc3cc(Cl)ccc23)C1)c1ccc(F)cc1` (stereo not drawn) and `Clc1ccc2c(NCc3ccccc3)ccnc2c1` are within 1.5-fold of each other in IC50: 470 nM for the first, 340 nM for the second.

Going from `CS(=O)(=O)c1ccc(CNCc2ccc(-c3ccc(-c4nc5ccc(C(F)(F)F)cc5[nH]4)cc3)cc2)cc1` to `O=C(NCc1ccc(F)cc1)Nc1ccc(-c2ccc(-c3nc4ccccc4[nH]3)cc2)cc1`, the IC50 falls from 710 nM to 90 nM (7.9-fold).

First: CCOC(=O)c1ccc(CC(C)NCC(O)c2cccc(C(F)(F)F)c2)cc1 (stereo not drawn)
Second: COc1ccccc1CNCC(O)c1cc(C(F)(F)F)ccc1C(F)(F)F (stereo not drawn)
The IC50 of the first is 4.3-fold lower: 220 nM for the first, 940 nM for the second. The first is the more potent here.

`CC(C)c1ccc(NC(=O)c2ccc(NCCCN(C)Cc3ccccc3)c([N+](=O)[O-])c2)cc1` and `CC(C)(C)c1ccc(NC(=O)c2cccc(CN3CCCN(Cc4cccc(Cl)c4)CC3)c2)cc1` are within 1.5-fold of each other in IC50: 680 nM for the first, 1000 nM for the second.

`Oc1ccc(CCNCCCCNCCc2ccc(Cl)cc2)cc1O` and `CCCCNCc1ccc(-c2nc(CN(CCCn3ccnc3)C(=O)N[C@@H]3C[C@H]3c3ccccc3)cs2)cc1` are within 1.5-fold of each other in IC50: 840 nM for the first, 740 nM for the second.

`c1ccc(CCNCc2ccc(-c3cccc(CNc4ccc5ncccc5c4)c3)cc2)cc1` and `COCCNCc1ccc(-c2ccc(CNc3ccc4ncccc4c3)cc2)cc1` are within 1.5-fold of each other in IC50: 930 nM for the first, 1040 nM for the second.

Compared with `O=C(NC1CCC(CCN2Cc3cccc(F)c3C2)CC1)c1cccc(-c2cccnc2)c1` (stereo not drawn), `O=C(NC1CCC(CCN2CCc3ccc(-c4cnccn4)cc3CC2)CC1)c1cccc(-n2cccn2)c1` (stereo not drawn) is 3-fold higher in IC50: 300 nM for the first, 900 nM for the second.

First: COc1cccc(-c2cnc(N)c(-c3nc4cc(Cl)c(F)cc4[nH]3)c2)c1
Second: CNCc1cccc(-c2ccc3ccnc(N)c3c2)c1
The IC50 of the first is 6-fold higher: 540 nM for the first, 90 nM for the second. The second is the more potent here.

First: COc1cc(C2CCN(CCCCNC(=O)c3ccc(NC(=O)c4ccc(Cl)c(Cl)c4)cc3)CC2)ccc1OC(C)C
Second: COc1cc(-n2cnc3cc(-c4ccc(Cl)cc4)sc3c2=O)ccc1OCCN1CCC(c2cccc(NC(C)=O)c2)CC1
The IC50 of the first is 1.7-fold lower: 320 nM for the first, 550 nM for the second.

`NCc1cccc(-c2cccc(CN(C(=O)Nc3ccccc3)C3CCN(Cc4ccccc4)CC3)c2)c1` and `O=C(NCCCN1CCC(Cc2ccccc2)CC1)c1cc2c(Cl)nc3ccccc3c2s1` are within 1.5-fold of each other in IC50: 830 nM for the first, 740 nM for the second.

`Cc1cc(=O)c(-c2ccc(Oc3cccc(OC(F)(F)F)c3)cc2)c(C)[nH]1` and `Cc1[nH]c(C)c(-c2ccc(OCc3ccc(OC(F)(F)F)cc3)nc2)c(=O)c1Br` are within 1.5-fold of each other in IC50: 200 nM for the first, 140 nM for the second.

`CCCC(CNCc1cccc(OC(F)(F)F)c1)CNc1cc(=O)c2ccccc2[nH]1` (stereo not drawn) and `O=S(=O)(NCCN1CCCC1)c1ccc(-c2cccc(CNCc3ccc(F)cc3)c2)cc1F` are within 1.5-fold of each other in IC50: 560 nM for the first, 790 nM for the second.

First: CN(C)CCN(C)Cc1ccc(-c2ccc3c(Nc4ccc(Oc5ccccn5)cc4)ccnc3c2)o1
Second: CN(C)CCCOc1cc(NC(=O)Nc2ccc(-c3ccncc3)c3ccccc23)ccc1I
The IC50 of the first is 1.7-fold lower: 420 nM for the first, 700 nM for the second.

First: CCOc1ccc2c(c1)N(C(=O)C=Cc1ccccc1)C(C)(C)c1ssc(=S)c1-2
Second: O=C(Nc1cc(Cl)ccc1-n1cncn1)C1(c2ccccc2)CC1
The IC50 of the first is 2.6-fold higher: 1150 nM for the first, 450 nM for the second.

`CC(=O)CC(=O)N1CCN(c2ccccc2)CC1` and `O=C(Nc1cccc(CN2CCCN(Cc3ccsc3)CC2)c1)c1cc2ccccc2s1` are within 1.5-fold of each other in IC50: 1060 nM for the first, 760 nM for the second.

Compared with `CC(CN(C)C)C(=O)Nc1ccc(-c2cccc(-c3nc4ccccc4[nH]3)c2)cc1` (stereo not drawn), `NC(=O)c1ccc(C(=O)Nc2cccc(-c3csc(-c4nc5ccccc5[nH]4)c3)c2)cc1` is 2.1-fold lower in IC50: 720 nM for the first, 350 nM for the second. The second is the more potent here.

Compared with `CC1(C)N=C(N)N=C(N)N1OCc1cc(Cl)c(CON2C(N)=NC(N)=NC2(C)C)cc1Cl`, `CN(C)CCCc1cc(NC(=O)Nc2cccc(Cl)c2Cl)ccc1I` is 14-fold higher in IC50: 40 nM for the first, 540 nM for the second. The first is the more potent here.

`COc1ccc2nccc([C@@H](O)CN3CCC(NC(=O)C(c4ccsc4)N4CCN(c5ccccc5OC)CC4)CC3)c2c1` (stereo partly drawn) and `COc1ccc2nccc([C@@H](O)CN3CCC(NCc4cc5ccccc5[nH]4)CC3)c2n1` are within 1.5-fold of each other in IC50: 830 nM for the first, 630 nM for the second.

`CN(C)c1ccc(C(c2ccc(N(C)C)cc2)c2cc([N+](=O)[O-])ccc2Cl)cc1` and `O=C(NCc1ccc(Cl)c(Cl)c1)c1cccc(C2CCCN(Cc3ccc4nc[nH]c4c3)C2)c1` (stereo not drawn) are within 1.5-fold of each other in IC50: 910 nM for the first, 930 nM for the second.

`CC(C)(C)c1cc([N+](=O)[O-])cc(C(=O)Nc2ccccc2C(F)(F)F)c1O` and `O=C(N[C@@H](CC1CCCCC1)C(=O)NC1CC1)c1ccc(O)c(-c2cccc(C(F)(F)F)c2)c1` are within 1.5-fold of each other in IC50: 650 nM for the first, 770 nM for the second.

`C(=N\Nc1nccc2sc(-c3ccccc3)cc12)/c1cccnc1` and `COc1cc(Nc2nccc(Nc3ccc4c(C)[nH]nc4c3)n2)cc2ccccc12` are within 1.5-fold of each other in IC50: 820 nM for the first, 700 nM for the second.

`CC(C)OC(=O)c1ccccc1S(N)(=O)=O` and `CN1CCC(NCc2ccc(-c3ccc(S(=O)(=O)NCc4ccccc4)s3)cc2)CC1` are within 1.5-fold of each other in IC50: 670 nM for the first, 770 nM for the second.

Compared with `Cn1nc(-c2ccc(CNC3CCc4ccccc43)cc2)c2cnc(NCCN3CCCC3)nc21` (stereo not drawn), `Fc1cccc(COc2ccc(Nc3ncnc4sc(C#CCNC5CCCC5)cc34)cc2Cl)c1` is 1.7-fold lower in IC50: 1350 nM for the first, 780 nM for the second. The second is the more potent here.

`N#Cc1ccc2[nH]cc(C(=O)CCCCCN(Cc3ccccc3)Cc3ccccc3)c2c1` and `Cc1n[nH]c(C)c1C1CCN(CC2CCC(NC(=O)/C=C/c3ccc(Cl)c(Cl)c3)CC2)CC1` (stereo not drawn) are within 1.5-fold of each other in IC50: 790 nM for the first, 730 nM for the second.
